Values belong to the compound of their own block, whether it stands above or below them.
Key:
[1] = molecular target: Adrenocorticotropic hormone receptor (Homo sapiens, UniProt Q01718)
Description: Displacement of [[125I]-Tyr23]-ACTH (1-39) from human MC2R incubated for 1.5 hrs by Topcount scintillation counting method

[2] = in vitro; conditions: human, liver microsomes
Description: Stability in human liver microsomes assessed as half life

[3] = in vitro; conditions: rat, liver microsomes
Description: Stability in rat liver microsomes assessed as half life

[4] = in vivo; conditions: rat, po, 10 mg/kg
[5] = in vivo; conditions: rat, po, 10 mg/kg; remark: listed apart in the source
[6] = in vivo; conditions: rat, po, 10 mg/kg; remark: listed apart in the source
[7] = in vivo; conditions: rat, po, 10 mg/kg; remark: listed apart in the source
Description: AUClast in rat at 10 mg/kg, po

[8] = in vivo; conditions: rat, po, 10 mg/kg; remark: listed apart in the source
Description: Half life in rat at 10 mg/kg, po

[9] = molecular target: Melanocortin receptor 5 (Homo sapiens, UniProt P33032)
Sequence of Melanocortin receptor 5 (P33032 whole entry): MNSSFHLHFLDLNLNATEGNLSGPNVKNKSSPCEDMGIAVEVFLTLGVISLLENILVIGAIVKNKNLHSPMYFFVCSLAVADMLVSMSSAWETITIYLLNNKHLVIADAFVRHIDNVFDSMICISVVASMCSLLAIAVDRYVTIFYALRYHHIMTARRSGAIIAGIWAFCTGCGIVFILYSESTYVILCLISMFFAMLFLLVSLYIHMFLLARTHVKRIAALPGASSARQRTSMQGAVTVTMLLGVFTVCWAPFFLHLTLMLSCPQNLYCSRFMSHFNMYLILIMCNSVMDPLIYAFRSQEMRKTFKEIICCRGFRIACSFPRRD

[10] = in vivo; conditions: Sprague-Dawley, rat, plasma, po, 30 mg/kg
Description: Drug concentration in Sprague-Dawley rat plasma at 30 mg/kg, po administered as single dose and stimulated with ACTH for 1 hr measured after 1.5 hrs

[11] = in vivo; conditions: rat, po, 5 mg/kg
Description: Cmax in rat at 5 mg/kg, po

[12] = in vivo; conditions: Sprague-Dawley, rat, plasma, po, 30 mg/kg; remark: listed apart in the source
Description: Drug concentration in Sprague-Dawley rat plasma at 30 mg/kg, po administered as single dose and stimulated with ACTH for 24 hrs measured after 0.5 hrs

[13] = in vivo; conditions: Sprague-Dawley, rat, plasma, po, 3 mg/kg
Description: Drug concentration in Sprague-Dawley rat plasma at 3 mg/kg, po administered as single dose and stimulated with ACTH for 24 hrs measured after 0.5 hrs

[14] = in vivo; conditions: Sprague-Dawley, rat, plasma, po, 3 mg/kg; remark: listed apart in the source
Description: Drug concentration in Sprague-Dawley rat plasma at 3 mg/kg, po administered as single dose and stimulated with ACTH for 1 hr measured after 1.5 hrs

[15] = in vivo; conditions: dog, po, 5 mg/kg
Description: Oral bioavailability in dog at 5 mg/kg

[16] = in vivo; conditions: Sprague-Dawley, rat, plasma, po, 3 mg/kg; remark: listed apart in the source
Description: Drug concentration in Sprague-Dawley rat plasma at 3 mg/kg, po administered as single dose and stimulated with ACTH for 4 hrs measured after 0.5 hrs

[17] = molecular target: 5-hydroxytryptamine receptor 1B (Homo sapiens, UniProt P28222)
Sequence of 5-hydroxytryptamine receptor 1B (P28222 whole entry): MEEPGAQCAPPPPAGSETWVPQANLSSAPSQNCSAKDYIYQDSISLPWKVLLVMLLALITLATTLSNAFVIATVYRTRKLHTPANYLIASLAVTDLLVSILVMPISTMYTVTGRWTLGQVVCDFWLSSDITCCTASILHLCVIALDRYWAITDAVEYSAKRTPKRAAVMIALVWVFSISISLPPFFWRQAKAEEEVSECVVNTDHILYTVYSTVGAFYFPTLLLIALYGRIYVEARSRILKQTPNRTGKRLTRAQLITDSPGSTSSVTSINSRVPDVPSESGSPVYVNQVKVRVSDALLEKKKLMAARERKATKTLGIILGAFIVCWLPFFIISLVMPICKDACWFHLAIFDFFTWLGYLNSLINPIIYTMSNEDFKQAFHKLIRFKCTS
Description: Antagonist activity at 5-HT1B (unknown origin)

[18] = in vitro; conditions: dog, plasma
Description: Plasma protein binding in dog at 1 uM

[19] = molecular target: Melanocortin receptor 3 (Homo sapiens, UniProt P41968)
Sequence of Melanocortin receptor 3 (P41968 whole entry): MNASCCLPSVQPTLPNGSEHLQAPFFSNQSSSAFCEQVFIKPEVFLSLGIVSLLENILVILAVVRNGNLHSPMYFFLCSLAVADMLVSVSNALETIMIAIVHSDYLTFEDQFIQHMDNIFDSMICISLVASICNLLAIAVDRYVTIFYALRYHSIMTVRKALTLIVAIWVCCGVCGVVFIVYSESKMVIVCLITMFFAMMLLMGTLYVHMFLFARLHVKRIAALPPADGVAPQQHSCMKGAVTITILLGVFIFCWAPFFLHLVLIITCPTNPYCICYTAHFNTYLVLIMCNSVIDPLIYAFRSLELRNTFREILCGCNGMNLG

[20] = molecular target: Cytochrome P450 2C9 (Homo sapiens, UniProt P11712)
Sequence of Cytochrome P450 2C9 (P11712 whole entry): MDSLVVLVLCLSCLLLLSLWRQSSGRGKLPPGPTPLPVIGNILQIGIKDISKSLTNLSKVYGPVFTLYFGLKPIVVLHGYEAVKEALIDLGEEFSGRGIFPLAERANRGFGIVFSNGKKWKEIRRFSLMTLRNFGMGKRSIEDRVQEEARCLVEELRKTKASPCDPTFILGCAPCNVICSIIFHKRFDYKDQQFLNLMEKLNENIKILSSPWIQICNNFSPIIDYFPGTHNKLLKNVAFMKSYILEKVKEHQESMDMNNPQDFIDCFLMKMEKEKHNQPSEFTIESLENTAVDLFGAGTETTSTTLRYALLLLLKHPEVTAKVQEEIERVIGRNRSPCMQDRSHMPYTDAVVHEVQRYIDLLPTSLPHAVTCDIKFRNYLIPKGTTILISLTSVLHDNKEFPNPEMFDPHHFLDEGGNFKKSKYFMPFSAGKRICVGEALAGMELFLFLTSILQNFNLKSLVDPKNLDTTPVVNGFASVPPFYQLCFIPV
Description: Inhibition of CYP2C9 (unknown origin)

[21] = in vivo; conditions: dog, po, 5 mg/kg; remark: listed apart in the source
Description: AUClast in dog at 5 mg/kg, po

[22] = in vivo; conditions: rat, iv, 5 mg/kg
Description: Half life in rat at 5 mg/kg, iv

[23] = in vitro; conditions: dog, MDCK
Description: Apparent permeability in MDCK cells

[24] = in vivo; conditions: Sprague-Dawley, rat, plasma, po, 30 mg/kg; remark: listed apart in the source
Description: Drug concentration in Sprague-Dawley rat plasma at 30 mg/kg, po administered as single dose and stimulated with ACTH for 48 hrs measured after 0.5 hrs

[25] = in vitro; conditions: human, plasma
Description: Plasma protein binding in human at 1 uM

[26] = in vivo; conditions: dog, iv, 5 mg/kg
Description: Clearance in dog at 5 mg/kg, iv

[27] = in vivo; conditions: Sprague-Dawley, rat, plasma, po, 3 mg/kg; remark: listed apart in the source
Description: Drug concentration in Sprague-Dawley rat plasma at 3 mg/kg, po administered as single dose and stimulated with ACTH for 4 hrs measured after 1.5 hrs

[28] = in vivo; conditions: rat, po, 5 mg/kg; remark: listed apart in the source
Description: AUClast in rat at 5 mg/kg, po

[29] = in vivo; conditions: Sprague-Dawley, rat, plasma, po, 30 mg/kg; remark: listed apart in the source
Description: Drug concentration in Sprague-Dawley rat plasma at 30 mg/kg, po administered as single dose and stimulated with ACTH for 4 hrs measured after 0.5 hrs

[30] = in vivo; conditions: dog, iv, 5 mg/kg; remark: listed apart in the source
Description: Volume of distribution at steady state in dog at 5 mg/kg, iv

[31] = molecular target: Cytochrome P450 3A4 (Homo sapiens, UniProt P08684)
Sequence of Cytochrome P450 3A4 (P08684 whole entry): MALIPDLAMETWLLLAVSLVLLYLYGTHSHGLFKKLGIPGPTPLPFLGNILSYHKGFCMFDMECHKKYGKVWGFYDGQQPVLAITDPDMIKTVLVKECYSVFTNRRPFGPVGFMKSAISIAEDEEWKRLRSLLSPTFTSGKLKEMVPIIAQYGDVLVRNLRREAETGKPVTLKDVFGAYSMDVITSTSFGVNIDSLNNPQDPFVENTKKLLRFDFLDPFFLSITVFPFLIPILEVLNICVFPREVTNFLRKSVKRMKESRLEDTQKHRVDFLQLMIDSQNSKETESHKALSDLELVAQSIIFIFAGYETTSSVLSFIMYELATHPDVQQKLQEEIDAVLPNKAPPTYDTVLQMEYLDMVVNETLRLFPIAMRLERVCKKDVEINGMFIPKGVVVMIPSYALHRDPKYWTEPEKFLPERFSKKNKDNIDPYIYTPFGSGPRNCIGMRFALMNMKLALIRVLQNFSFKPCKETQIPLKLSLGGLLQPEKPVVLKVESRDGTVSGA
Description: Time dependent inhibition of CYP3A4 (unknown origin)

[32] = molecular target: L-type calcium channel (Homo sapiens, UniProt O60840+Q01668+Q13698+Q13936); experiment: in vitro
Description: Inhibition of L-type calcium channel (unknown origin) at 10 uM relative to control

[33] = in vitro; conditions: rat, plasma
Description: Plasma protein binding in rat at 1 uM

[34] = in vivo; conditions: dog, po, 5 mg/kg; remark: listed apart in the source
Description: Cmax in dog at 5 mg/kg, po

[35] = in vivo; conditions: rat, iv, 5 mg/kg; remark: listed apart in the source
Description: Clearance in rat at 5 mg/kg, iv

[36] = molecular target: Cytochrome P450 2D6 (Homo sapiens, UniProt P10635)
Sequence of Cytochrome P450 2D6 (P10635 whole entry): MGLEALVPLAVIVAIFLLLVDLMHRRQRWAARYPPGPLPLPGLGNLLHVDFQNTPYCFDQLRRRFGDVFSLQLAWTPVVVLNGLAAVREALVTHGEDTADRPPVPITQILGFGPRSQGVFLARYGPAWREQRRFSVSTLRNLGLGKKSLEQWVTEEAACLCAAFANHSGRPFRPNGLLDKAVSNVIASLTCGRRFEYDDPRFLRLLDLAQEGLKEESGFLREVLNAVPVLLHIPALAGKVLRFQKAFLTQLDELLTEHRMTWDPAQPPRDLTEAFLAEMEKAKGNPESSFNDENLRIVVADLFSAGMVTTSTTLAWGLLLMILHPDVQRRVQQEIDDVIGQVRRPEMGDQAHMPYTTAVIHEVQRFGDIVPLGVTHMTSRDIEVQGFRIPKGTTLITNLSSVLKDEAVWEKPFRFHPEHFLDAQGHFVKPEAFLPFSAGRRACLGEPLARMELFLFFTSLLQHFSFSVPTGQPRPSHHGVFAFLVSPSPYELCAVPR
Description: Time dependent inhibition of CYP2D6 (unknown origin)

[37] = molecular target: Melanocortin receptor 4 (Homo sapiens, UniProt P32245)
Sequence of Melanocortin receptor 4 (P32245 whole entry): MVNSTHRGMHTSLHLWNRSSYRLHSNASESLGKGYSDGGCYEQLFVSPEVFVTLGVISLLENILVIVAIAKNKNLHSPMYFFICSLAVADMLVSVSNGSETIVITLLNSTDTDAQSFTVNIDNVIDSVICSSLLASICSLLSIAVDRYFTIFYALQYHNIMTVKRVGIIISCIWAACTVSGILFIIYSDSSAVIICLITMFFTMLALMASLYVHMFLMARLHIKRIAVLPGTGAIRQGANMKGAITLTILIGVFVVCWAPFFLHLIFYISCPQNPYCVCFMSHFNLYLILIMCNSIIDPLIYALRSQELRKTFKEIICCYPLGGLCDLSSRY

[38] = molecular target: Cytochrome P450 2C19 (Homo sapiens, UniProt P33261)
Sequence of Cytochrome P450 2C19 (P33261 whole entry): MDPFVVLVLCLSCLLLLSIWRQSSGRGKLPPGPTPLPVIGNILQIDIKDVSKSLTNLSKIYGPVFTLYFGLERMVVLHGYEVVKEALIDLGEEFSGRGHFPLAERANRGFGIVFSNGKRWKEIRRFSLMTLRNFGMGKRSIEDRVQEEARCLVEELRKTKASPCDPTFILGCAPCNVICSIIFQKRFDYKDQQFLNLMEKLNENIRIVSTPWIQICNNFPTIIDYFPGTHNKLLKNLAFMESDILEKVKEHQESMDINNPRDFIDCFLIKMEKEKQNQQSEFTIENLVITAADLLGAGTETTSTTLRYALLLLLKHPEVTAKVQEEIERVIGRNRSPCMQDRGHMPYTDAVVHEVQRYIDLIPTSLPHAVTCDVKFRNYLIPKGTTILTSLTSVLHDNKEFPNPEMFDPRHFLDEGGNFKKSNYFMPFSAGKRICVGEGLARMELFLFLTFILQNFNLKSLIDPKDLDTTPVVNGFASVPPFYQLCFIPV
Description: Inhibition of CYP2C19 (unknown origin)

[39] = test system: MDR1; experiment: in vitro; conditions: dog, MDCK-MDR1
Description: Efflux ratio of apparent permeability across basolateral to apical over apical to basolateral in MDCK-MDR1 cells

[40] = in vivo; conditions: Sprague-Dawley, rat, plasma, po, 30 mg/kg; remark: listed apart in the source
Description: Drug concentration in Sprague-Dawley rat plasma at 30 mg/kg, po administered as single dose and stimulated with ACTH for 4 hrs measured after 1.5 hrs

[41] = in vivo; conditions: Sprague-Dawley, rat, plasma, po, 3 mg/kg; remark: listed apart in the source
Description: Drug concentration in Sprague-Dawley rat plasma at 3 mg/kg, po administered as single dose and stimulated with ACTH for 1 hr measured after 0.5 hr

[42] = in vivo; conditions: Sprague-Dawley, rat, plasma, po, 30 mg/kg; remark: listed apart in the source
Description: Drug concentration in Sprague-Dawley rat plasma at 30 mg/kg, po administered as single dose and stimulated with ACTH for 24 hrs measured after 1.5 hrs

[43] = in vivo; conditions: dog, iv, 5 mg/kg; remark: listed apart in the source
Description: Half life in dog at 5 mg/kg, iv

[44] = molecular target: Melanocyte-stimulating hormone receptor (Homo sapiens, UniProt Q01726)
Sequence of Melanocyte-stimulating hormone receptor (Q01726 whole entry): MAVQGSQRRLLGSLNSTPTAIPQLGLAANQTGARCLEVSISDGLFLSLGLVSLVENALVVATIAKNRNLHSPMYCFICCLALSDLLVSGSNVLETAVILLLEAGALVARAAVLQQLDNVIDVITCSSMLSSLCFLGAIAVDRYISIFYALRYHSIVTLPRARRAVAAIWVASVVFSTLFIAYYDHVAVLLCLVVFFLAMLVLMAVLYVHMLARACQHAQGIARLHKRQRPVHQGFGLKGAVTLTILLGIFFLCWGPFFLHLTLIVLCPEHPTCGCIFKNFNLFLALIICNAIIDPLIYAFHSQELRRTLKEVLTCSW

[45] = in vivo; conditions: rat, po, 5 mg/kg; remark: listed apart in the source
Description: Oral bioavailability in rat at 5 mg/kg

[46] = in vivo; conditions: Sprague-Dawley, rat, plasma, po, 30 mg/kg; remark: listed apart in the source
Description: Drug concentration in Sprague-Dawley rat plasma at 30 mg/kg, po administered as single dose and stimulated with ACTH for 1 hr measured after 0.5 hr

[47] = in vivo; conditions: rat, iv, 5 mg/kg; remark: listed apart in the source
Description: Volume of distribution at steady state in rat at 5 mg/kg, iv

Sequence of Adrenocorticotropic hormone receptor (Q01718 whole entry): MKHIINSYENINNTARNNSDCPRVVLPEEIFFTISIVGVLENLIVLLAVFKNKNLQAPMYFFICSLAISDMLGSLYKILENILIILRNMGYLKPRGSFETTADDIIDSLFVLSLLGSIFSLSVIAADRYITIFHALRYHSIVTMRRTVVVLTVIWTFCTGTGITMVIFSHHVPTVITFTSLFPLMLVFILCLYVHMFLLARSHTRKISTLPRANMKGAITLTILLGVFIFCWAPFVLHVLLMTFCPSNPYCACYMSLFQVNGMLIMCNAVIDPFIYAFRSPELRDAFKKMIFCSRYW

SMILES: CCOc1ncccc1-c1ccc(N2CCN(C(=O)C3(C(F)(F)F)CCC3)C[C@H]2CC)c(C(=O)N[C@@H]2CN3CCC2CC3)n1
Ki [1]: 4.4 nM

SMILES: CCOc1ccccc1-c1ccc(N2CCN(C(=O)c3ccc(Cl)cc3Cl)C[C@H]2CC)c(C(=O)NCCN)c1
Ki [1]: 4.8 nM
AUC(0-t) [4]: 0.0081 µM·h
Cmax [5]: 2.8 nM

SMILES: CCOc1ccccc1-c1ccc(N2CCN(C(=O)C3(C(F)(F)F)CCC3)C[C@H]2CC)c(C(=O)N[C@@H]2CCN(C)C2)n1
Ki [1]: 1.3 nM
half-life [2]: 1.93 h
half-life [3]: 3.85 h

SMILES: CCOc1ncccc1-c1ccc(N2CCN(C(=O)c3ccc(Cl)cc3C(F)(F)F)C[C@H]2CC)c(C(=O)N[C@@H]2CCN(C)C2)n1
bioavailability [6]: 17%
Ki [1]: 0.3 nM
AUC(0-t) [7]: 1.44 µM·h
half-life [8]: 2.2 h
half-life [2]: 0.583 h
half-life [3]: 0.717 h

SMILES: CCOc1ncccc1-c1ccc(N2CCN(C(=O)c3ccc(Cl)cc3C(F)(F)F)C[C@H]2CC)c(C(=O)NCCN(C)C)c1
Ki [1]: 1.5 nM

SMILES: CCOc1ncccc1-c1ccc(N2CCN(C(=O)c3ccc(Cl)cc3C(F)(F)F)C[C@H]2CC)c(C(=O)NCCN(C)C)c1F
Ki [1]: 0.9 nM

SMILES: CCOc1ccccc1-c1ccc(N2CCN(C(=O)c3ccc(C(F)(F)F)cc3Cl)C[C@H]2CC)c(C(=O)NCCN)c1
Ki [1]: 2 nM

SMILES: CCOc1ncccc1-c1ccc(N2CCN(C(=O)C3(C(F)(F)F)CCC3)C[C@H]2CC)c(C(=O)N[C@@H]2CCN(C)C2)n1
Ki [1]: 3.7 nM
half-life [2]: 1.28 h
half-life [3]: > 11.6 h

SMILES: CC[C@@H]1CN(C(=O)c2ccc(C(F)(F)F)cc2Cl)CCN1c1ccc(-c2cccc(F)c2Cl)cc1C(=O)NCCN
Ki [1]: 36 nM

SMILES: CCOc1ncccc1-c1ccc(N2CCN(C(=O)c3ccc(Cl)cc3C(F)(F)F)C[C@H]2CC)c(C(=O)N[C@@H]2CCNC2)n1
Ki [1]: 0.32 nM
AUC(0-t) [7]: 0.279 µM·h
half-life [8]: 4 h
half-life [2]: 3.85 h
half-life [3]: 5.78 h

SMILES: CCOc1ccccc1-c1ccc(N2CCN(C(=O)C3(C(F)(F)F)CCC3)C[C@H]2CC)c(C(=O)N[C@@H]2CN3CCC2CC3)n1 [ATUMELNANT]
IC50 [9]: > 10000 nM
Ki [1]: 2.1 nM
concentration at […] [10]: 1530 ng/mL
Cmax [11]: 1220 nM
concentration at 0.5 h [12]: 20 ng/mL
concentration at 0.5 h [13]: 0.927 ng/mL
concentration at […] [14]: 93.9 ng/mL
bioavailability [15]: 100%
concentration at 0.5 h [16]: 127 ng/mL
IC50 [17]: 750 nM
fraction unbound at 1 µM [18]: 0.132
IC50 [19]: > 10000 nM
IC50 [20]: > 10000 nM
AUC(0-t) [21]: 4.97 µM·h
half-life [22]: 2.73 h
half-life [2]: 3.85 h
Papp [23]: 1.9 ×10⁻⁶ cm/s
concentration at 0.5 h [24]: 0.88 ng/mL
fraction unbound at 1 µM [25]: 0.014
clearance [26]: 14.2 mL/min/kg
concentration at […] [27]: 87.5 ng/mL
AUC(0-t) [28]: 5.2 µM·h
concentration at 0.5 h [29]: 1460 ng/mL
Vd [30]: 10.5 L/kg
IC50 [31]: > 10000 nM
inhibition at 10 µM [32]: > 70%
fraction unbound at 1 µM [33]: 0.026
Cmax [34]: 650 nM
clearance [35]: 24.5 mL/min/kg
IC50 [36]: > 10000 nM
IC50 [37]: > 10000 nM
IC50 [38]: > 10000 nM
efflux ratio [39]: 95
half-life [3]: 3.85 h
concentration at […] [40]: 1260 ng/mL
concentration at 0.5 h [41]: 110 ng/mL
concentration at […] [42]: 14.1 ng/mL
half-life [43]: 9.55 h
IC50 [44]: > 10000 nM
bioavailability [45]: 47%
concentration at 0.5 h [46]: 1140 ng/mL
Vd [47]: 3.19 L/kg

Further lines, results first:

Ki [1]: 1.1 nM
SMILES: CCOc1ncccc1-c1ccc(N2CCN(C(=O)c3ccc(Cl)cc3C(F)(F)F)C[C@H]2CC)c(C(=O)NCCN)c1

Ki [1]: 0.63 nM
half-life [2]: 0.383 h
half-life [3]: 3.85 h
SMILES: CCOc1ncccc1-c1ccc(N2CCN(C(=O)C3(C(F)(F)F)CCCC3)C[C@H]2CC)c(C(=O)N[C@@H]2CCN(C)C2)n1

Ki [1]: 25 nM
SMILES: CC[C@@H]1CN(C(=O)c2ccc(C(F)(F)F)cc2Cl)CCN1c1ccc(-c2ccccc2C#N)cc1C(=O)NCCN

Ki [1]: 1.6 nM
SMILES: CCOc1ccccc1-c1ccc(N2CCN(C(=O)c3ccc(Cl)cc3C(F)(F)F)C[C@H]2CC)c(C(=O)NCCN)c1

Ki [1]: 0.4 nM
half-life [2]: 1.15 h
half-life [3]: 0.533 h
SMILES: CCOc1ncccc1-c1ccc(N2CCN(C(=O)C34CCC(C(F)(F)F)(CC3)CC4)C[C@H]2CC)c(C(=O)N[C@@H]2CCN(C)C2)n1

Ki [1]: 0.96 nM
SMILES: CCOc1ncccc1-c1ccc(N2CCN(C(=O)c3ccc(Cl)cc3C(F)(F)F)C[C@H]2CC)c(C(=O)NCCNC)c1

bioavailability [6]: 8%
Ki [1]: 0.39 nM
AUC(0-t) [7]: 0.349 µM·h
half-life [8]: 1.6 h
half-life [2]: 0.383 h
half-life [3]: 0.35 h
SMILES: CCOc1ncccc1-c1ccc(N2CCN(C(=O)c3ccc(Cl)cc3C(F)(F)F)C[C@H]2CC)c(C(=O)NCCN(C)C)n1

Ki [1]: 21 nM
SMILES: CC[C@@H]1CN(C(=O)c2ccc(C(F)(F)F)cc2Cl)CCN1c1ccc(-c2ccccc2Cl)cc1C(=O)NCCN

Ki [1]: 47 nM
SMILES: CC[C@@H]1CN(C(=O)c2ccc(C(F)(F)F)cc2Cl)CCN1c1ccc(-c2ccccc2F)cc1C(=O)NCCN
